Source: publication PMC12811658, “Design, Synthesis, and Structural Evolution of Pseudo‐Natural Product IDO1 Inhibitors and Degraders” (Angewandte Chemie (International Ed. in English), 2025)

System: global proteome of SKOV-3 cells
Experiment: TMT-based global proteome profiling
Format: cell-based
Conditions: 10 µM vs DMSO, 4 h, LC-MS/MS
Procedure: Figure 3 Comparison of IDO1 degradation efficiency for selected compounds. a) Detection of IDO1 levels using immunostaining. IFN‐γ stimulated HeLa cells were treated with the compounds for 24 h. IDO1 protein abundance was detected with IDO1 antibody. Data are mean values ± SD, n = 3. b) IDO1 protein levels in BxPC3 cells upon compounds treatment were detected using immunoblotting. BxPC3 cells were treated with IFN‐γ for 24 h prior to washout, followed by addition of compounds. Representative blot and quantified band intensities are shown (mean values ± SD, n = 3). See Figure S11a S12a for the uncropped blots. c) Key functions of hit compounds that influence degradation efficiency. d) Heatmap for IDO degradation efficiency. IDO1 levels were monitored as described in (c). See Table S1 for mean values and Figure S11b for the uncropped blots. e)–g) Dose dependent degradation of IDO1 protein in BxPC3 cells treated with iDeg‐7–9 and detected as described in (c). Representative data of n = 3 except for iDeg‐9 (n = 4). See Figure S12 S13 for the uncropped blots. h) Quantification of IDO1 protein levels from e‐g (mean values ± SD, n = 3 except for iDeg‐9 (n = 4). i) Tabulated inhibition and degradation ability of iDeg‐6–9. ND: not detected. j) Volcano plot of iDeg‐6‐induced changes on the global proteome. SKOV‐3 cells were treated with 10 µM iDeg‐6 or DMSO for 4 h followed by protein extraction, tryptic digest and LC‐MS/MS analysis (n = 4). Plot generated using UMSAP (T 0 = 0.5, S 0 = 0.5).
Cells were collected after trypsinization. The collected cell suspension was centrifugated and washed twice by cold PBS before lysate preparation by means of four freeze-thaw cycles in PBS containing 0.4% NP-40 alternative with protease (Roche, #5892970001) and phosphatase inhibitors (Roche, #4906845001). Protein concentration was determined by DC protein assay (BIO-RAD, #5000116) and 200 μg of protein lysates were subjected to the sample preparation and MS analysis. Protein lysates were dissolved in equal volume of 100 mM triethylammonium bicarbonate (TEAB) buffer supplemented with 7.5 µL of a 200 mM Tris(2-carboxyethyl) phosphine (TCEP) followed by an incubation step at 55 °C for 1 h. Afterwards, 7.5 µL of 375 mM iodoacetamide were added and samples were incubated for another 30 min at room temperature in the dark prior to acetone-based protein precipitation (pre-incubation at -20 °C overnight). On the next day, samples were centrifuged at 8,000 x g and 4 °C, the supernatant was aspired and protein pellets were dried at room temperature. Pellets were dissolved in digestion buffer (trypsin: protein ratio-1:50 (w/w)), in which trypsin was pre-dissolved in 10 mM HCl, and then diluted in 100 mM TEAB buffer to a final concentration of 0.4 µg/µL trypsin in 10 mM HCl, then the sample was incubated with shaking overnight at 37 °C. On the next day, samples were labelled with TMT10plex reagents (Thermo Scientific, WL320956) following the instruction of the TMT10plex Mass Tag Labeling Kit. Namely, 20 µL of the TMTpro Label reagent was added to each 100 µL sample (100 µg protein) followed by incubation for 2 h at room temperature while shaking. Afterwards, 5 µL of 5% hydroxylamine was added into each sample, and the samples were incubated for 15 min to quench the reaction. Equal amounts of each sample were combined in a new tube. The pooled samples were dried in a SpeedVac at 30 °C until the liquid evaporated completely.
All solvents used during MS measurements were LC-MS grade. The TMTpro labeled peptides were cleaned up and fractionated using a reversed-phase fractionation spin column (Thermo Fisher Scientific ^#84868) following the instructions of the Pierce™ High pH Reversed-Phase Peptide Fractionation kit. Briefly, the combined labeled samples (40 µg) were fully dissolved in 300 μL of 0.1% TFA and loaded onto an activated spin column, followed by centrifugation at 3000 g for 2 minutes. […]

## C#Cc1ccc(NC(=O)OC[C@]23CN(S(=O)(=O)c4ccc(C(C)(C)C)cc4C)C[C@H]2C[C@H]2C[C@@H]3C2(C)C)cc1 [98 (iDeg-6), ((3aS,4R,6R,7aS)-2-((4-(tert-butyl)-2-methylphenyl)sulfonyl)-5,5-dimethyloctahydro-3aH-4,6-methanoisoindol-3a-yl)methyl (4-ethynylphenyl)carbamate]
  Difference in protein level: ATP6V0D1: 0.47
  Difference in protein level: COX6C: 0.79
  Difference in protein level: COX7A2: 0.74
  Difference in protein level: COX7C: 0.6
  Difference in protein level: ERLIN2: 0.69
  Difference in protein level: IDO1: -0.53
  Difference in protein level: MT-CO2: 0.44
  Difference in protein level: MT-ND2: 0.52
  Difference in protein level: NDUFA3: 0.44
  Difference in protein level: NDUFA9: 0.58
  Difference in protein level: NDUFB3: 0.53
  Difference in protein level: NDUFB11: 0.51
  Difference in protein level: NDUFC2: 0.57
  Difference in protein level: NDUFS5: 0.51
  Difference in protein level: PHB: 0.45
  Difference in protein level: PHB2: 0.54
  Difference in protein level: TCIRG1: 0.37
  Difference in protein level: TOMM5: 0.56
  Difference in protein level: TOMM22: 0.6
  Difference in protein level: TOMM40: 0.45
  Difference in protein level: UQCRB: 0.52
  Difference in protein level: VDAC3: 0.52
